Laboratory results reported in US11319274B2, “Process for the preparation of polymorph form B of treprostinil diethanolamine salt” (CHINOIN GYÓGYSZER ÉS VEGYÉSZETI TERMÉKEK GYÁRA ZRT., priority 2018, dated 2022).
Structures can show the parent of a compound that is named as a salt. Where two headings read alike, the source gives them in different places.

Key:
[1] = crystalline polymorph, as stated in WO2005/007081; cited from earlier work
[2] = cited from earlier work; for polymorph stability: as stated in WO2005/007081
[3] = hygroscopic character of the polymorph forms; type: physicochemical; conditions: crystals from methanol-methyl tertiary-butyl ether at −70° C. (example 17)
Experimental: (§1) The two polymorph forms (forms A and B) of the crystalline treprostinil diethanolamine salt were first described in patent specification WO2005/007081. The polymorph forms were characterized by their melting point, X-ray powder diffraction pattern, DSC (Differential Scanning calorimetry) and TGA (Thermogravimetric Analysis) curves, and by their hygroscopic character.
(§2) Polymorph form B of treprostinil diethanolamine salt was obtained also if the salt was dissolved in methanol, the solution was set to opalescent with methyl tertiary-butyl ether at 45° C. and then crystallisation was completed at room temperature (yield 87%) (example 16.). […] This form is named polymorph form C (example 17.).

[4] = relative stability / transformation of the polymorph forms; type: physicochemical; conditions: on the basis of the DSC curve; transforms in the DSC tube into the more stable, higher melting form
Excerpt: as §1
Publication Organic Process & Development, 2009, 13, 242-249. (Crystallization Process Development for Stable Polymorph of Treprostinil; Batra, H.; Penmasta, R.; Phares, K.; Staszewski, J.; Tuladhar, S. M; D. A. Walsh, United Therapeutics) describes in detail the physical characteristics of the two polymorphs and the experiments carried out for their preparation.
as §2
DSC: • Instrument: METTLER TOLEDO DSC1 STARe System, Stare basic V9.30 • Method: Starting temperature: 30° C. • Final temperature: 150° C. • Heating rate: 5° C./min • Amount: 2-6 mg, perforated aluminum crucible (40 μl)

Compound	hygroscopic character [1]	polymorph stability [2]	transformation on standing ([2]; Organic Process & Development, 2009, 13, 242-249)	transformation in suspension ([2]; suspension in organic solvents (1,4-dioxane, isopropanol, tetrahydrofuran, toluene), agitation at different temperatures, WO2005/007081)	hygroscopic character [3]	polymorph stability [4]
CCCCC[C@H](O)CC[C@@H]1[C@H]2Cc3cccc(OCC(=O)O)c3C[C@H]2C[C@H]1O [form B, (1R,2R,3aS,9aS)-2-[2-Hydroxy-1-[3(S)-hydroxyoctyl]-2,3,3a,4,9,9a-hexahydro-1H-benz[f]inden-5-yloxy] acetic acid diethanolamine salt]	much less hygroscopic	more stable	–	–	–	–
CCCCC[C@H](O)CC[C@@H]1[C@H]2Cc3cccc(OCC(=O)O)c3C[C@H]2C[C@H]1O [form A, (1R,2R,3aS,9aS)-2-[2-Hydroxy-1-[3(S)-hydroxyoctyl]-2,3,3a,4,9,9a-hexahydro-1H-benz[f]inden-5-yloxy] acetic acid diethanolamine salt]	hygroscopic	metastable	on standing transforms into the thermodynamically more stable form B	transforms into form B on agitation	–	–
CCCCC[C@H](O)CC[C@@H]1[C@H]2Cc3cccc(OCC(=O)O)c3C[C@H]2C[C@H]1O [polymorph form C, (1R,2R,3aS,9aS)-2-[2-Hydroxy-1-[3(S)-hydroxyoctyl]-2,3,3a,4,9,9a-hexahydro-1H-benz[f]inden-5-yloxy] acetic acid diethanolamine salt]	–	–	–	–	highly hygroscopic	less stable form
